Experimental data as given in patent publication US8586602B2, “Derivatives of 7 alkynyl-1,8 naphthyridones, preparation method thereof and use of same in therapeutics” (Sanofi, priority 2007, dated 2013).
Values joined by “and” are separate entries in the source; they are usually repeats but may differ in a detail not shown here. Equal entries are not always repeated. Structures can show the parent of a compound that is named as a salt.

Key:
VEGFR-3-TK = biological target: T1, VEGFR-3-TK (Homo sapiens, UniProt P35916); assay: Measurement of the tyrosine kinase activity of VEGFR-3 by ELISA (phosphorylation of poly Glu-Tyr); type: biochemical; conditions: VEGFR-3 ELISA, poly Glu-Tyr substrate, 30 μM ATP, 30 min at ambient temperature; read-out: IC50 (concentration which decreases the total activity of the enzyme by 50%)
T1 construct: purchased Cell Signaling 7790
Protocol: The compounds according to the invention have formed the subject of pharmacological assays which make it possible to determine their inhibitory effect on the VEGFR-3 enzyme.
Measurement of the Tyrosine Kinase Activity of VEGFR-3 by ELISA
The effect of the products is quantified by the concentration which decreases the total activity of the enzyme by 50% (IC50). For the determination of the IC50 values, the product is diluted in DMSO with a concentration range which extends from 3 to 1000 nM. The day before the manipulation, 125 μl of the poly Glu-Tyr substrate (250 μg/ml in 1×PBS without Ca^2+ or Mg^2+ or sodium bicarbonate) are deposited in each well of an ELISA plate (for example, an ELISA plate of the SIGMA Protein Tyrosine Kinase Assay kit, Ref. PTK-101). The plate is subsequently covered with an adhesive film and incubated overnight at 37° C. The following day, the wells are emptied by turning the plate over, washed by adding 300 μl of buffer solution (PBS+0.05% Tween 20) and dried by further incubation of the plate for 2 h at 37° C. A 90 μl reaction mixture is deposited onto each well. This mixture comprises the 1× kinase buffer to which 30 μM of ATP and the inhibitor at the desired concentration have been added. […]

T1 sequence (P35916 800-1297 limits assumed): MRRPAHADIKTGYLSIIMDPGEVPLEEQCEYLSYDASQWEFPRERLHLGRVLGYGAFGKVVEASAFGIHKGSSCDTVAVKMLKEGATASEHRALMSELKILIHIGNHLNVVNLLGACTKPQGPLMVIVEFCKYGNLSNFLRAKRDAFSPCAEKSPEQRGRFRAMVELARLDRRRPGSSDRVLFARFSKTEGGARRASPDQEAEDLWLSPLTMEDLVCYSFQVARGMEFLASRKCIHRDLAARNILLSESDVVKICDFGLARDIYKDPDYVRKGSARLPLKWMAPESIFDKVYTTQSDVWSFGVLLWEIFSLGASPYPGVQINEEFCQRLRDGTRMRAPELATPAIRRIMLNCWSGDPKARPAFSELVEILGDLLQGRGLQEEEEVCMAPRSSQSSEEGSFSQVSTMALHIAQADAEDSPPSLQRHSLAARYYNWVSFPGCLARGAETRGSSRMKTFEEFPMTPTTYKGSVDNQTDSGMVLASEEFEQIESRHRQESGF

Row | Structure (SMILES) | melting point | IC50 (VEGFR-3-TK)
1 | CCn1c(N)c(C(=O)NC)c(=O)c2ccc(C#CCNC(=O)OC)nc21 [Compound 2, Methyl {3-[7-amino-8-ethyl-6-(methylcarbamoyl)-5-oxo-5,8-dihydro-1,8-naphthyridin-2-yl]prop-2-yn-1-yl}carbamate] | 255 °C and 250 °C | 
2 | CCn1c(N)c(C(=O)NC)c(=O)c2ccc(C#CC(C)(C)OCC(N)=O)nc21 [Compound 6, 2-Amino-7-[3-(2-amino-2-oxoethoxy)-3-methylbut-1-yn-1-yl]-1-ethyl-N-methyl-4-oxo-1,4-dihydro-1,8-naphthyridine-3-carboxamide] | 204 °C | 
3 | CCn1c(N)c(C(=O)NC)c(=O)c2ccc(C#CCOC)nc21 [Compound 5, 2-amino-1-ethyl-7-(3-methoxyprop-1-yn-1-yl)-N-methyl-4-oxo-1,4-dihydro-1,8-naphthyridine-3-carboxamide] | 233 °C | 343 nM
4 | CCn1c(N)c(C(=O)NC)c(=O)c2ccc(C#CC(C)(COC)OC)nc21 (racemic) [Compound 1, (±)-2-Amino-7-(3,4-dimethoxy-3-methylbut-1-yn-1-yl)-1-ethyl-N-methyl-4-oxo-1,4-dihydro-1,8-naphthyridine-3-carboxamide] | 185 to 187 °C | 
5 | CCn1c(N)c(C(=O)NC)c(=O)c2ccc(C#CC(C)(C)N)nc21 (as salt: hydrochloride) [Compound 4, 2-Amino-7-(3-amino-3-methylbut-1-yn-1-yl)-1-ethyl-N-methyl-4-oxo-1,4-dihydro-1,8-naphthyridine-3-carboxamide hydrochloride] | 293 °C | 
6 | CCn1c(N)c(C(=O)NC)c(=O)c2ccc(C#CC(C)(C)N)nc21 [Compound 4, 2-Amino-7-(3-amino-3-methylbut-1-yn-1-yl)-1-ethyl-N-methyl-4-oxo-1,4-dihydro-1,8-naphthyridine-3-carboxamide hydrochloride] |  | 451 nM
